Data as given in patent US20100215759A1 (priority 2009, published 2010).

How the values were obtained:
[1] = tested on: mouse deferent vessel (vas deferens); experiment: Ex-vivo model: electrically induced contractions of the isolated deferent vessel (vas deferens); parameters: species or system albino CD1 mice; conditions: for Effect on the curve % of inhibition of the contractions/logarithm of the WIN 55212-2 concentration: concentrations lower than or equal to 1×10^−5 M; for Inhibition of the contractions induced by the electric stimulus: concentrations lower than or equal to 1×10^−6 M
Text: The use of the isolated deferent vessel organ, as a highly sensitive basic system in an ex-vivo model for evaluating the activity of agonist CB1 compounds, has been described by Pertwee et al. in Br. J. Pharmacol., 105:980-4, 1992. This model has been used also to evaluate the properties of antagonist CB1 compounds and to distinguish antagonist CB1 derivatives from inverse agonist CB1 compounds (Rinaldi-Carmona et al., FEBS Lett., 350:240-4, 1994; Pertwee et al., Eur. J. Pharmacol., 456:99-106, 2002). […] This effect is correlated to the action on the prejunctional neuronal CB1 receptors with the consequent release inhibition, induced by electric stimuli, of contractile neurotransmitters (noradrenaline and ATP) (Schlicker and Kathmann, Trends Pharmacol. Sci., 22:565-72, 2001). The inhibition of the contractions induced by the electric stimulus on the deferent vessel in the presence of agonist (or partial agonist) CB1 compounds are expressed as % of contraction inhibition. Said % contraction inhibition is calculated by the ratio between the contraction amplitude determined in the presence of a given concentration of the compound and that detected in its absence (basal value). The curve of the “% of contraction inhibition” as a function of the logarithm of the concentration of agonist (or partial agonist) CB1 compounds, is sigmoidal. The use of the model for the evaluation of antagonist CB1 compounds is based on the evaluation of their efficacy in inhibiting the action of the deferent vessel of agonist (or partial agonist) CB1 compounds. The inhibition is expressed by a shifting towards the right of the curves % of inhibition of contractions/logarithm of the concentration of the agonist CB1 compound, with increasing the concentration of the antagonist CB1 compound.
As reported in the literature, the experimentation has been carried out by using albino CD1 mice weighing 30-40 grams. The mice deferent vessel was recovered and transferred into an instrument for separated organs supplied by the Firm Ugo Basile (Comerio, Italy). The initial tension was of 0.5 g. The procedure adopted is reported in Pertwee et al. in Br. J. Pharmacol., 110:1483-1490, 1993. In particular the procedure and instruments as described by S. Ruiu et al. in J.P.E.T., Vol. 306, 2003, 363-370, have been used.
In a subsequent experiment it was shown that the compound activity was antagonized by the antagonist CB1 compound N-piperidinyl-[8-chloro-1-(2,4-dichlorophenyl)-1,4,5,6-tetrahydrobenzo[6,7]cyclohepta[1,2-c]pyrazol-3-carboxamide], described by S. Ruiu et al. in J.P.E.T., Vol. 306, 2003, 363-370. The experiment was carried out by adding the antagonist (concentration in bath 1 nM) 20 minutes before the first addition of the compound of the invention.

[2] = tested on: old DBA/2J mice; experiment: Reduction of intraocular pressure (IOP) after application to the eye, TONOLab tonometer; assay type: in vivo; conditions: for Intraocular Pressure Decrease: versus basal IOP
Text: The main risk factor in the glaucoma is represented by the high intraocular pressure (IOP). See for instance: Libby R. T. et al., Vis Neurosci. 2005 Sep.-Oct., 22(5):637-48 and Tomida I. et al., Br. J. Opthalmol. 2004 May, 88(5):708-13.
By using the animal model of old DBA/2J mice (see above) it has been evaluated the efficacy of the compound obtained in example 3.1 in reducing the IOP. As said, this compound has a good affinity towards the CB1 receptors in vitro (example 4) and a CB1 agonist action in vivo (example 5). The intraocular pressure has been determined by a TONOLab Tonometer (Tiolat Oy), as reported by M. E. Pease et al. in J. Glaucoma, 2006 December, 15(6):512-519. The compound was dispersed in the commercial emulsion Tocrisolve™, (Tocris), at a concentration of […] and applied to the eye of old DBA/2J mice (8-10 month age; basal IOP comprised between 19.0 and 22.5 mmHg). The applied emulsion volumes were such that the compound doses resulted, respectively, of 100 μg or 50 μg. WIN 55212-2 was dispersed in Tocrisolve™at the concentration of 5 mg/ml and was the reference cannabinoidergic compound. The determination of the ocular pressure was carried out every 30 minutes up to two hours starting from the administration. The obtained results (average of 6 measurements at each time for experimental groups of 8-10 animals for group/dose) are reported in Table 3. IOP decrease was expressed in percent with respect to the basal value.

[3] = 50 μg to the eye in Tocrisolve, 30 minutes
[4] = 50 μg to the eye in Tocrisolve, 60 minutes
[5] = 50 μg to the eye in Tocrisolve, 90 minutes
[6] = 50 μg to the eye in Tocrisolve, 120 minutes
[7] = 100 μg to the eye in Tocrisolve, 30 minutes
[8] = 100 μg to the eye in Tocrisolve, 60 minutes
[9] = 100 μg to the eye in Tocrisolve, 90 minutes
[10] = 100 μg to the eye in Tocrisolve, 120 minutes

CCOC(=O)c1nn(-c2ccc(S(N)(=O)=O)cc2)c2c1CCc1sccc1-2 [Compound (XA), 1-(4′-sulphonamidophenyl)-4,5-dihydro-1H-thieno[2,3-g]indazol-3-ethyl carboxylate]
Effect on the curve % of inhibition of the contractions/logarithm of the WIN 55212-2 concentration [1]: did not significantly modify the slope of the curve
Inhibition of the contractions induced by the electric stimulus [1]: did not significantly inhibit the contractions
Intraocular Pressure Decrease [2, 3]: −0.3%
Intraocular Pressure Decrease [2, 4]: −0.2%
Intraocular Pressure Decrease [2, 5]: 0.0%
Intraocular Pressure Decrease [2, 6]: −0.1%
Intraocular Pressure Decrease [2, 7]: 0.0%
Intraocular Pressure Decrease [2, 8]: −0.2%
Intraocular Pressure Decrease [2, 9]: −0.1%
Intraocular Pressure Decrease [2, 10]: 0.1%
Reduction of intraocular pressure ([2]; dose 50 μg): not able to significantly reduce the intraocular pressure
Reduction of intraocular pressure ([2]; dose 100 μg): not able to significantly reduce the intraocular pressure

NC(=O)c1nn(-c2ccc(S(N)(=O)=O)cc2)c2c1CCc1sccc1-2 [Compound (XB), 1-(4′-sulphonamidophenyl)-4,5-dihydro-1H-thieno[2,3-g]indazol-3-carboxamide]
Effect on the curve % of inhibition of the contractions/logarithm of the WIN 55212-2 concentration [1]: did not significantly modify the slope of the curve
Inhibition of the contractions induced by the electric stimulus [1]: did not significantly inhibit the contractions
Intraocular Pressure Decrease [2, 3]: −0.2%
Intraocular Pressure Decrease [2, 4]: −0.1%
Intraocular Pressure Decrease [2, 5]: 0.0%
Intraocular Pressure Decrease [2, 6]: −0.1%
Intraocular Pressure Decrease [2, 7]: −0.1%
Intraocular Pressure Decrease [2, 8]: 0.4%
Intraocular Pressure Decrease [2, 9]: −0.3%
Intraocular Pressure Decrease [2, 10]: 0.0%
Reduction of intraocular pressure ([2]; dose 50 μg): not able to significantly reduce the intraocular pressure
Reduction of intraocular pressure ([2]; dose 100 μg): not able to significantly reduce the intraocular pressure

Cc1ccc(Cn2nc(C(=O)NCC3CCC4CC3C4(C)C)c3c2-c2sc(C)cc2C3)cc1 (stereo not drawn) [Example 3.1, N-myrtanyl-6-methyl-1-(4′-methylbenzyl)-1,4-dihydrothieno[3′,2′:4,5]cyclopenta[1,2-c]pyrazol-3-carboxamide]
Antagonism of the compound activity by a CB1 antagonist ([1]; antagonist N-piperidinyl-[8-chloro-1-(2,4-dichlorophenyl)-1,4,5,6-tetrahydrobenzo[6,7]cyclohepta[1,2-c]pyrazol-3-carboxamide] 1 nM in bath, added 20 minutes before): antagonized
Functional character at CB1 ([1]; vas deferens model): CB1 agonist
Intraocular Pressure Decrease [2, 3]: 15.9%
Intraocular Pressure Decrease [2, 4]: 15.0%
Intraocular Pressure Decrease [2, 5]: 12.6%
Intraocular Pressure Decrease [2, 6]: 11.7%
Intraocular Pressure Decrease [2, 7]: 23.9%
Intraocular Pressure Decrease [2, 8]: 22.8%
Intraocular Pressure Decrease [2, 9]: 19.6%
Intraocular Pressure Decrease [2, 10]: 21.7%
Reduction of intraocular pressure ([2]; dose 50 μg): more effective in reducing IOP than the reference compound
Reduction of intraocular pressure ([2]; dose 100 μg): as effective to reduce eye pressure as the reference compound WIN 55212-2
